In the test the target is T1, Tyrosine-protein kinase SYK [355-635] (Homo sapiens, UniProt P43405).
T1 construct: 355-635
Description: SYK assay_HTRF.

Values joined by “and” are separate entries in the source; they are usually repeats but may differ in a detail not shown here. Identical values can stand only once.

Regarding `NC(=O)c1cccc(Nc2nccc(Nc3cccc4[nH]ncc34)n2)c1` [3-{[4-(1H-indazol-4-ylamino)pyrimidin-2-yl]amino}benzamide], the half-inhibitory concentration (IC50) (usually the concentration that gives 50% inhibition) is 0.533 µM.

On to `NS(=O)(=O)c1cccc(Nc2nccc(Nc3cccc4[nH]ncc34)n2)c1` [3-{[4-(1H-indazol-4-ylamino)pyrimidin-2-yl]amino}benzene-1-sulfonamide], for which the 50% inhibitory concentration (IC50) is 0.018 µM and 0.0475 µM.

For `O=C1Cc2cc(Nc3nccc(Nc4cccc5[nH]ncc45)n3)ccc2N1` [GTC000107A], the IC50 was 0.18 µM and 0.071 µM and 0.0807 µM and 0.115 µM. For `NC(=O)c1ccc(Nc2nccc(Nc3cccc4[nH]ncc34)n2)cc1` [GTC000108B] the value was 0.1 µM and 0.218 µM and 0.0514 µM and 0.0598 µM. As for `Cc1cc(=O)[nH]c2cc(Nc3nccc(Nc4cccc5[nH]ncc45)n3)ccc12` [GTC000109A], the half-inhibitory concentration (IC50) was determined as 0.0536 µM. As to `c1cc(Nc2ccnc(Nc3ccc4c(c3)CCO4)n2)c2cn[nH]c2c1` [GTC000111A], the midpoint of inhibition, the IC50, lay at 0.222 µM. Consider `c1cc(Nc2ccnc(Nc3ccc4nn[nH]c4c3)n2)c2cn[nH]c2c1` [GTC000112A], for which the IC50 was 0.0528 µM and 0.0798 µM. To `c1cc(Nc2ccnc(Nc3cccc4[nH]ncc34)n2)c2cn[nH]c2c1` [GTC000113A] belongs 0.16 µM; to `CC(=O)N1CCc2cc(Nc3nccc(Nc4cccc5[nH]ncc45)n3)ccc21` [GTC000114A], 0.206 µM.

The compound `O=c1[nH]c2ccc(Nc3nccc(Nc4cccc5[nH]ncc45)n3)cc2[nH]1` [GTC000115A] gave a half-inhibitory concentration (IC50) of 0.0783 µM. `O=C1CCc2ccc(Nc3nccc(Nc4cccc5[nH]ncc45)n3)cc21` [GTC000116A]: the half-inhibitory concentration (IC50) is 0.195 µM and 0.146 µM.

`O=C1CCCc2cc(Nc3nccc(Nc4cccc5[nH]ncc45)n3)ccc21` [GTC000117A]: the IC50 is 0.0912 µM.

As to `COc1cc(Nc2nccc(Nc3cccc4[nH]ncc34)n2)cc(OC)c1` [GTC000118A], the IC50 was 0.0353 µM and 0.0671 µM and 0.0935 µM and 0.203 µM. To `O=C(O)c1cccc(Nc2nccc(Nc3cccc4[nH]ncc34)n2)c1` [GTC000119A] belongs 0.207 µM; to `c1cc(Nc2ccnc(Nc3ccc4ncsc4c3)n2)c2cn[nH]c2c1` [GTC000122A], 0.04 µM and 0.0535 µM. To `Cc1nc2ccc(Nc3nccc(Nc4cccc5[nH]ncc45)n3)cc2s1` [GTC000123A] belongs 0.0601 µM and 0.0885 µM; to `Cn1ncc2ccc(Nc3nccc(Nc4cccc5[nH]ncc45)n3)cc21` [GTC000124A], 0.0168 µM and 0.0217 µM; to `O=C(O)Cc1cccc(Nc2nccc(Nc3cccc4[nH]ncc34)n2)c1` [GTC000125A], 0.118 µM and 0.493 µM. Consider `c1cc(Nc2nccc(Nc3cccc4[nH]ncc34)n2)cc(-c2cc[nH]n2)c1` [GTC000126A], for which the IC50 is 0.0223 µM and 0.0419 µM. To `COC(=O)c1cccc(Nc2nccc(Nc3cccc4[nH]ncc34)n2)c1` [GTC000127B] belongs 0.25 µM and 0.0585 µM and 0.127 µM; to `CC(C)c1ccc(Nc2nccc(Nc3cccc4[nH]ncc34)n2)cc1` [GTC000128A], 0.219 µM. As for `c1cc(Nc2ccnc(Nc3ccc(N4CCOCC4)cc3)n2)c2cn[nH]c2c1` [GTC000129A], inhibition was half-maximal at 0.22 µM (IC50). To `c1cc(Nc2nccc(Nc3cccc4[nH]ncc34)n2)cc(-c2nnn[nH]2)c1` [GTC000130A] belongs 0.00343 µM and 0.0143 µM; to `N#Cc1cccc(Nc2nccc(Nc3cccc4[nH]ncc34)n2)c1` [GTC000131A], 0.0624 µM and 0.0705 µM; to `FC(F)(F)c1cccc(Nc2nccc(Nc3cccc4[nH]ncc34)n2)c1` [GTC000132A], 0.154 µM and 0.127 µM and 0.151 µM and 0.44 µM. For `O=C1NS(=O)(=O)c2cc(Nc3nccc(Nc4cccc5[nH]ncc45)n3)ccc21` [GTC000133A] the value was 0.0173 µM and 0.0446 µM; for `Cc1ncoc1-c1cccc(Nc2nccc(Nc3cccc4[nH]ncc34)n2)c1` [GTC000134A], 0.0292 µM and 0.0498 µM and 0.0661 µM and 0.13 µM; for `COc1ccc(Nc2nccc(Nc3cccc4[nH]ncc34)n2)cc1` [GTC000135A], 0.179 µM and 0.225 µM and 0.243 µM and 0.923 µM. For the compound `FC(F)(F)c1ccc(Nc2nccc(Nc3cccc4[nH]ncc34)n2)cc1` [GTC000136A], the IC50 came to 0.206 µM. For `c1cc(Nc2nccc(Nc3cccc4[nH]ncc34)n2)cc(-c2ccsc2)c1` [GTC000137A] the value was 0.0942 µM and 0.162 µM and 0.16 µM and 0.353 µM; for `Oc1ccc(Nc2nccc(Nc3cccc4[nH]ncc34)n2)cc1` [GTC000138A], 0.195 µM and 0.0505 µM. To `N#Cc1ccc(Nc2nccc(Nc3cccc4[nH]ncc34)n2)cc1` [GTC000139A] belongs 0.211 µM; to `CNC(=O)COc1cccc(Nc2nccc(Nc3cccc4[nH]ncc34)n2)c1` [GTC000140A], 0.0363 µM and 0.0457 µM and 0.0374 µM and 0.0807 µM; to `COc1ccc(Nc2nccc(Nc3cccc4[nH]ncc34)n2)cc1Cl` [GTC000141A], 0.14 µM and 0.145 µM and 0.284 µM and 0.612 µM. Consider `c1cc(Nc2ccnc(Nc3ccc4c(c3)CCC4)n2)c2cn[nH]c2c1` [GTC000142A], for which the half-maximal inhibitory concentration (IC50) is 0.114 µM and 0.255 µM.

For `O=C1Nc2cc(Nc3nccc(Nc4cccc5[nH]ncc45)n3)ccc2OC1(F)F` [GTC000144A], the IC50 is 0.0135 µM and 0.104 µM.

Consider `CC1(C)Oc2ccc(Nc3nccc(Nc4cccc5[nH]ncc45)n3)cc2NC1=O` [GTC000145A], for which the IC50 is 0.0386 µM and 0.153 µM.

`CNC(=O)c1ccc(Nc2nccc(Nc3cccc4[nH]ncc34)n2)cc1` [GTC000146A]: the IC50 is 0.0653 µM and 0.114 µM.

For the compound `O=S1(=O)Cc2ccc(Nc3nccc(Nc4cccc5[nH]ncc45)n3)cc2C1` [GTC000147A], the half-maximal inhibitory concentration (IC50) was 0.0605 µM and 0.109 µM. For `Cc1nc(-c2cccc(Nc3nccc(Nc4cccc5[nH]ncc45)n3)c2)no1` [GTC000148A] the value was 0.0067 µM and 0.032 µM. On to `O=C1Nc2ccc(Nc3nccc(Nc4cccc5[nH]ncc45)n3)cc2CO1` [GTC000149A], for which the half-maximal inhibitory concentration (IC50) was 0.00721 µM and 0.0252 µM.

For `CCN(CC)C(=O)c1ccc(Nc2nccc(Nc3cccc4[nH]ncc34)n2)cc1` [GTC000150A], the midpoint of inhibition, the IC50, lay at 0.315 µM. To `O=C1OCc2cc(Nc3nccc(Nc4cccc5[nH]ncc45)n3)ccc21` [GTC000152A] belongs 0.0685 µM and 0.0885 µM; to `O=S1(=O)NCc2cc(Nc3nccc(Nc4cccc5[nH]ncc45)n3)ccc21` [GTC000153A], 0.0422 µM and 0.0859 µM and 0.0541 µM. To `O=C1Cc2ccc(Nc3nccc(Nc4cccc5[nH]ncc45)n3)cc2N1` [GTC000154A] belongs 0.0223 µM and 0.0415 µM.

Turning to `c1cc(Nc2ccnc(Nc3ccc4c(c3)OCO4)n2)c2cn[nH]c2c1` [GTC000155A], the half-maximal inhibitory concentration (IC50) was 0.0405 µM and 0.0659 µM and 0.0776 µM and 0.267 µM. To `c1cc(Nc2nccc(Nc3cccc4[nH]ncc34)n2)cc(-c2cnco2)c1` [GTC000156A] belongs 0.0187 µM and 0.0336 µM; to `c1cc(Nc2nccc(Nc3cccc4[nH]ncc34)n2)cc(-c2nc3ccccc3[nH]2)c1` [GTC000157A], 0.0054 µM and 0.0152 µM; to `Cn1c(=O)n(C)c2cc(Nc3nccc(Nc4cccc5[nH]ncc45)n3)ccc21` [GTC000158A], 0.0986 µM and 0.0891 µM and 0.244 µM. Compound `Cc1cc(=O)[nH]c2ccc(Nc3nccc(Nc4cccc5[nH]ncc45)n3)cc12` [GTC000159A] came in with a half-inhibitory concentration (IC50) of 0.0281 µM. As for `c1cc(Nc2ccnc(Nc3ccc4oncc4c3)n2)c2cn[nH]c2c1` [GTC000160A], the half-inhibitory concentration (IC50) is 0.0484 µM and 0.076 µM. On to `Cn1cnc2cc(Nc3nccc(Nc4cccc5[nH]ncc45)n3)ccc21` [GTC000162A], for which the 50% inhibitory concentration (IC50) is 0.11 µM and 0.094 µM and 0.245 µM.

As to `Cc1ncoc1-c1ccc(Nc2nccc(Nc3cccc4[nH]ncc34)n2)cc1` [GTC000163A], the IC50 is 0.149 µM and 0.221 µM. Regarding `Cn1ncc2cc(Nc3nccc(Nc4cccc5[nH]ncc45)n3)ccc21` [GTC000164A], the concentration for half-maximal inhibition (IC50) was 0.0585 µM and 0.0861 µM and 0.214 µM. To `c1cc(Nc2ccnc(Nc3ccc(-c4cnco4)cc3)n2)c2cn[nH]c2c1` [GTC000165A] belongs 0.119 µM and 0.18 µM and 0.34 µM and 0.202 µM; to `O=C1CNC(=O)N1c1ccc(Nc2nccc(Nc3cccc4[nH]ncc34)n2)cc1` [GTC000166A], 0.242 µM. For `O=C1CNC(=O)N1c1cccc(Nc2nccc(Nc3cccc4[nH]ncc34)n2)c1` [GTC000167A] the value was 0.233 µM. For `Cc1nc2cc(Nc3nccc(Nc4cccc5[nH]ncc45)n3)ccc2s1` [GTC000168A] the value was 0.468 µM; for `O=c1ccc2cc(Nc3nccc(Nc4cccc5[nH]ncc45)n3)ccc2o1` [GTC000169A], 0.421 µM and 0.242 µM; for `CN1C(=O)c2ccc(Nc3nccc(Nc4cccc5[nH]ncc45)n3)cc2C1=O` [GTC000170A], 0.573 µM. In turn, `O=C1NC(=O)c2cc(Nc3nccc(Nc4cccc5[nH]ncc45)n3)ccc21` [GTC000171A] registered a half-inhibitory concentration (IC50) of 0.506 µM. To `CCN(C(C)=O)c1ccc(Nc2nccc(Nc3cccc4[nH]ncc34)n2)cc1` [GTC000172A] belongs 0.589 µM.

In the case of `c1ccc(COc2cccc(Nc3nccc(Nc4cccc5[nH]ncc45)n3)c2)cc1` [GTC000173A], the IC50 is 0.148 µM and 0.195 µM and 0.348 µM and 0.71 µM. To `COC(=O)c1ccc(Nc2nccc(Nc3cccc4[nH]ncc34)n2)cc1` [GTC000174A] belongs 0.175 µM and 0.209 µM; to `CC(=O)N(C)c1ccc(Nc2nccc(Nc3cccc4[nH]ncc34)n2)cc1` [GTC000175A], 0.793 µM. To `CC(C)(C)c1ccc(Nc2nccc(Nc3cccc4[nH]ncc34)n2)cc1` [GTC000176A] belongs 0.508 µM; to `Cc1cc(=O)[nH]c2c(C)cc(Nc3nccc(Nc4cccc5[nH]ncc45)n3)cc12` [GTC000177A], 0.0139 µM and 0.0431 µM and 0.0354 µM and 0.0196 µM; to `CC(C)ONS(=O)(=O)c1cccc(Nc2nccc(Nc3cccc4[nH]ncc34)n2)c1` [GTC000178A], 0.685 µM.

For `O=S(=O)(c1cccc(Nc2nccc(Nc3cccc4[nH]ncc34)n2)c1)N1CCCCC1` [GTC000179A], inhibition was half-maximal at 4.16 µM (IC50). For `CONS(=O)(=O)c1ccc(Nc2nccc(Nc3cccc4[nH]ncc34)n2)cc1` [GTC000180A] the value was 0.2 µM and 0.276 µM. For `NS(=O)(=O)c1ccc(Nc2nccc(Nc3cccc4[nH]ncc34)n2)cc1` [GTC000181A] the value was 0.0655 µM and 0.211 µM and 0.194 µM and 0.162 µM and 0.0729 µM.

With `O=C(Nc1ccccc1)c1ccc(Nc2nccc(Nc3cccc4[nH]ncc34)n2)cc1` [GTC000182A], the IC50 was 0.433 µM and 0.398 µM. Turning to `Cc1ccc(NC(=O)c2ccc(Nc3nccc(Nc4cccc5[nH]ncc45)n3)cc2)cc1` [GTC000183A], the IC50 is 0.546 µM and 0.618 µM. Regarding `CNS(=O)(=O)c1ccc(Nc2nccc(Nc3cccc4[nH]ncc34)n2)cc1` [GTC000184A], the IC50 is 0.493 µM and 0.443 µM and 0.161 µM. For `CN1CCN(C(=O)c2ccc(Nc3nccc(Nc4cccc5[nH]ncc45)n3)cc2)CC1` [GTC000185A] the value was 4.19 µM. For `O=S(=O)(Nc1nccs1)c1ccc(Nc2nccc(Nc3cccc4[nH]ncc34)n2)cc1` [GTC000186A] the value was 0.615 µM and 0.427 µM; for `Cc1noc(NS(=O)(=O)c2ccc(Nc3nccc(Nc4cccc5[nH]ncc45)n3)cc2)c1C` [GTC000187A], 1.38 µM and 0.971 µM; for `O=S(=O)(c1ccc(Nc2nccc(Nc3cccc4[nH]ncc34)n2)cc1)N1CCCC1` [GTC000188A], 1.8 µM and 1.34 µM.

These data come from BindingDB's records for doi:10.7270/Q2CV4GM1 (D3R/Abbott, 2015).
